From patent US9969749B2, “Inhibitors of IRAK4 activity” (MERCK SHARP & DOHME CORP., priority 2014, dated 2018)

biological target: IRAK4 (Homo sapiens (Human), UniProt Q9NWZ3); assay: IRAK4 Kinase Assay (IMAP fluorescence polarization); type: biochemical; conditions: 0.5 nM GST tagged IRAK4, 100 μM ATP, 100 nM fluorescent peptide substrate RP7030, 30 minutes at 25° C.
Description: The kinase activity of IRAK4 is determined by its ability to catalyze the phosphorylation of a fluorescent polypeptide substrate. The extent of phosphorylation is measured using the IMAP technology (Molecular Devices) where the phosphorylated fluorescent substrate binds to the large M(III)-based nanoparticles which reduces the rotational speed of the substrate and thus increases its fluorescent polarization (FP).
20 μL reaction mixture contains 10 mM TriHCl, pH 7.2, 0.5 nM GST tagged IRAK4 (SignalChem), 100 nM fluorescent peptide substrate (RP7030, Molecular Devices), 100 μM ATP, 1 mM DDT, 1 mM MgCl2, and 0.01% Tween 20. The reaction is initiated by the addition of ATP. After incubation for 30 minutes at 25° C., 60 μL of Progressive IMAP Reagent (Molecular Devices) is added to stop the reaction. Change in RP7030's FP is determined by a FP reader (Analyst HT, LJL BioSystems).

Chain of IRAK4 (Q9NWZ3 whole entry): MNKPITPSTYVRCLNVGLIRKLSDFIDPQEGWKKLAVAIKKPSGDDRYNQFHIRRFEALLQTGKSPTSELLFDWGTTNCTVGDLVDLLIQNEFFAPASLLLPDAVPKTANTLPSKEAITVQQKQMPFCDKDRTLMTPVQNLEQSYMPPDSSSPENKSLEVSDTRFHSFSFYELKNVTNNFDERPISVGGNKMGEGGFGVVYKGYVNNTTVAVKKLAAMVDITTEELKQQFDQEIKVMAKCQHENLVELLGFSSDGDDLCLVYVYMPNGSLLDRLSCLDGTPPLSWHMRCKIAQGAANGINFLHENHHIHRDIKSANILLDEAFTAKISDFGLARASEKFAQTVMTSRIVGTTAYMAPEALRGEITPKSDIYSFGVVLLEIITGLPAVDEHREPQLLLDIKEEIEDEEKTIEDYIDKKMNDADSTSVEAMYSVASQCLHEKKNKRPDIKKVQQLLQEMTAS

SMILES	IC50 [nM]
Oc1cccc(-c2ccc3ncnc(N[C@H]4CC[C@H](N5CCOCC5)CC4)c3c2)c1 [Example 1-72, 3-{4-[(trans-4-morpholin-4-ylcyclohexyl)amino]quinazolin-6-yl}phenol]	6
Nc1cncc(-c2ccc3ncnc(N[C@H]4CC[C@H](N5CCOCC5)CC4)c3c2)c1 [Example 1-73, 6-(5-aminopyridin-3-yl)-N-(trans-4-morpholin-4-ylcyclohexyl)quinazolin-4-amine]	1
Nc1cc(-c2ccc3ncnc(N[C@H]4CC[C@H](N5CCOCC5)CC4)c3c2)ccn1 [Example 1-74, 6-(2-aminopyridin-4-yl)-N-(trans-4-morpholin-4-ylcyclohexyl)quinazolin-4-amine]	3
Cn1cc(-c2ccc3ncnc(N[C@H]4CC[C@H](N5CCOCC5)CC4)c3c2)cn1 [Example 1-75, 6-(1-methyl-1H-pyrazol-4-yl)-N-(trans-4-morpholin-4-ylcyclohexyl)quinazolin-4-amine]	39
Cc1c(-c2cncnc2)ccc2ncnc(N[C@H]3CC[C@H](N4CCOCC4)CC3)c12 [Example 1-76, 5-methyl-N-(trans-4-morpholin-4-ylcyclohexyl)-6-pyrimidin-5-ylquinazolin-4-amine]	223
Cc1c(-c2cnn(C)c2)ccc2ncnc(N[C@H]3CC[C@H](N4CCOCC4)CC3)c12 [Example 1-77, 5-methyl-6-(1-methyl-1H-pyrazol-4-yl)-N-(trans-4-morpholin-4-ylcyclohexyl)quinazolin-4-amine]	1310
Cc1c(-c2ccncc2)ccc2ncnc(N[C@H]3CC[C@H](N4CCOCC4)CC3)c12 [Example 1-78, 5-methyl-N-(trans-4-morpholin-4-ylcyclohexyl)-6-pyridin-4-ylquinazolin-4-amine]	433
Cc1c(-c2cncc(O)c2)ccc2ncnc(N[C@H]3CC[C@H](N4CCOCC4)CC3)c12 [Example 1-79, 5-{5-methyl-4-[(trans-4-morpholin-4-ylcyclohexyl)amino]quinazolin-6-yl}pyridin-3-ol]	38
Fc1cc2ncnc(N[C@H]3CC[C@H](N4CCOCC4)CC3)c2cc1-c1cn[nH]c1 [Example 1-80, 7-fluoro-N-(trans-4-morpholin-4-ylcyclohexyl)-6-(1H-pyrazol-4-yl)quinazolin-4-amine]	2
CNc1cncc(-c2ccc3ncnc(N[C@H]4CC[C@H](N5CCOCC5)CC4)c3c2)c1 [Example 1-81, 6-[5-(methylamino)pyridin-3-yl]-N-(trans-4-morpholin-4-ylcyclohexyl)quinazolin-4-amine]	2
c1nc(N[C@H]2CC[C@H](N3CCOCC3)CC2)c2cc(-c3cn[nH]c3)ccc2n1 [Example 1-82, N-(trans-4-morpholin-4-ylcyclohexyl)-6-(1H-pyrazol-4-yl)quinazolin-4-amine]	2
Nc1cccc(-c2ccc3ncnc(N[C@H]4CC[C@H](N5CCOCC5)CC4)c3c2)c1 [Example 1-83, 6-(3-aminophenyl)-N-(trans-4-morpholin-4-ylcyclohexyl)quinazolin-4-amine]	9
Oc1cncc(-c2cc3c(N[C@H]4CC[C@H](N5CCOCC5)CC4)ncnc3cc2F)c1 [Example 1-84, 5-{7-fluoro-4-[(trans-4-morpholin-4-ylcyclohexyl)amino]quinazolin-6-yl}pyridin-3-ol]	1
Nc1cncc(-c2cc3c(N[C@H]4CC[C@H](N5CCOCC5)CC4)ncnc3cc2F)c1 [Example 1-85, 6-(5-aminopyridin-3-yl)-7-fluoro-N-(trans-4-morpholin-4-ylcyclohexyl)quinazolin-4-amine]	10
CNc1cncc(-c2cc3c(N[C@H]4CC[C@H](N5CCOCC5)CC4)ncnc3cc2F)c1 [Example 1-86, 7-fluoro-6-[5-(methylamino)pyridin-3-yl]-N-(trans-4-morpholin-4-ylcyclohexyl)quinazolin-4-amine]	23
Fc1cc2ncnc(N[C@H]3CC[C@H](N4CCOCC4)CC3)c2cc1-c1cncnc1 [Example 1-87, 7-fluoro-N-(trans-4-morpholin-4-ylcyclohexyl)-6-pyrimidin-5-ylquinazolin-4-amine]	15
c1cc(-c2ccc3ncnc(N[C@H]4CC[C@H](N5CCOCC5)CC4)c3c2)c2cc[nH]c2c1 [Example 1-88, 6-(1H-indol-4-yl)-N-[trans-4-(morpholin-4-yl)cyclohexyl]quinazolin-4-amine]	100
Cc1ncc(-c2ccc3ncnc(N[C@H]4CC[C@H](N5CCOCC5)CC4)c3c2)cn1 [Example 1-89, 6-(2-methylpyrimidin-5-yl)-N-[trans-4-(morpholin-4-yl)cyclohexyl]quinazolin-4-amine]	18

SMILES	IC50 [nM]
FC(F)(F)c1ncc(-c2ccc3ncnc(N[C@H]4CC[C@@H](N5CCOCC5)CC4)c3c2)cn1 [Example 1-90, N-[cis-4-(morpholin-4-yl)cyclohexyl]-6-[2-(trifluoromethyl)pyrimidin-5-yl]quinazolin-4-amine]	169
c1nc(N[C@H]2CC[C@H](N3CCOCC3)CC2)c2cc(-c3cc[nH]n3)ccc2n1 [Example 1-91, N-[trans-4-(morpholin-4-yl)cyclohexyl]-6-(1H-pyrazol-3-yl)quinazolin-4-amine]	20
CS(=O)(=O)Nc1cncc(-c2ccc3ncnc(N[C@H]4CC[C@H](N5CCOCC5)CC4)c3c2)c1 [Example 1-92, N-[5-(4-{[trans-4-(morpholin-4-yl)cyclohexyl]amino}quinazolin-6-yl)pyridin-3-yl]methanesulfonamide]	24
Cc1cncc(-c2ccc3ncnc(N[C@H]4CC[C@H](N5CCOCC5)CC4)c3c2)c1 [Example 1-93, 6-(5-methylpyridin-3-yl)-N-[trans-4-(morpholin-4-yl)cyclohexyl]quinazolin-4-amine]	26
OCc1cncc(-c2ccc3ncnc(N[C@H]4CC[C@H](N5CCOCC5)CC4)c3c2)c1 [Example 1-94, [5-(4-{[trans-4-(morpholin-4-yl)cyclohexyl]amino}quinazolin-6-yl)pyridin-3-yl]methanol]	10
CC(C)(O)c1cncc(-c2ccc3ncnc(N[C@H]4CC[C@H](N5CCOCC5)CC4)c3c2)c1 [Example 1-95, 2-[5-(4-{[trans-4-(morpholin-4-yl)cyclohexyl]amino}quinazolin-6-yl)pyridin-3-yl]propan-2-ol]	330
c1nc(N[C@H]2CC[C@H](N3CCOCC3)CC2)c2cc(-c3cnoc3)ccc2n1 [Example 1-96, 6-(isoxazol-4-yl)-N-[trans-4-(morpholin-4-yl)cyclohexyl]quinazolin-4-amine]	9
Fc1cncc(-c2ccc3ncnc(N[C@H]4CC[C@H](N5CCOCC5)CC4)c3c2)c1 [Example 1-97, 6-(5-fluoropyridin-3-yl)-N-[trans-4-(morpholin-4-yl)cyclohexyl]quinazolin-4-amine]	22
N#Cc1cncc(-c2ccc3ncnc(N[C@H]4CC[C@H](N5CCOCC5)CC4)c3c2)c1 [Example 1-98, 5-(4-{[trans-4-(morpholin-4-yl)cyclohexyl]amino}quinazolin-6-yl)pyridine-3-carbonitrile]	21
Clc1cncc(-c2ccc3ncnc(N[C@H]4CC[C@H](N5CCOCC5)CC4)c3c2)c1 [Example 1-99, 6-(5-chloropyridin-3-yl)-N-[trans-4-(morpholin-4-yl)cyclohexyl]quinazolin-4-amine]	11
Oc1cc(-c2ccc3ncnc(N[C@H]4CC[C@H](N5CCOCC5)CC4)c3c2)cnc1Cl [Example 1-100, 2-chloro-5-(4-{[trans-4-(morpholin-4-yl)cyclohexyl]amino}quinazolin-6-yl)pyridin-3-ol]	1
CCOC(=O)c1cn(C)nc1-c1ccc2ncnc(N[C@H]3CC[C@H](N4CCOCC4)CC3)c2c1 [Example 2-1, Ethyl 1-methyl-3-(4-(((trans)-4-morpholinocyclohexyl)amino)quinazolin-6-yl)-1H-pyrazole-4-carboxylate]	6030
Cc1nc(-c2ccc3ncnc(N[C@H]4CC[C@H](N5CCOCC5)CC4)c3c2)cs1 [Example 2-2, 6-(2-methyl-1,3-thiazol-4-yl)-N-(trans-4-morpholin-4-ylcyclohexyl)quinazolin-4-amine]	92
CC(C)c1nc(-c2ccc3ncnc(N[C@H]4CC[C@H](N5CCOCC5)CC4)c3c2)cs1 [Example 2-3, 6-[2-(1-methylethyl)-1,3-thiazol-4-yl]-N-(trans-4-morpholin-4-ylcyclohexyl)quinazolin-4-amine]	390
FC(F)(F)c1cncc(-c2ccc3ncnc(N[C@H]4CC[C@H](N5CCOCC5)CC4)c3c2)c1 [Example 2-4, N-(trans-4-morpholin-4-ylcyclohexyl)-6-[5-(trifluoromethyl)pyridin-3-yl]quinazolin-4-amine]	119
Oc1ncc(C(F)(F)F)cc1-c1ccc2ncnc(N[C@H]3CC[C@H](N4CCOCC4)CC3)c2c1 [Example 2-5, 3-{4-[(trans-4-morpholin-4-ylcyclohexyl)amino]quinazolin-6-yl}-5-(trifluoromethyl)pyridin-2-ol]	928
Nc1cc(-c2ccc3ncnc(N[C@H]4CC[C@H](N5CCOCC5)CC4)c3c2)cnc1F [Example 2-7, 6-(5-amino-6-fluoropyridin-3-yl)-N-(trans-4-morpholin-4-ylcyclohexyl)quinazolin-4-amine]	1
O=C(O)c1cccc(-c2ccc3ncnc(N[C@H]4CC[C@H](N5CCOCC5)CC4)c3c2)n1 [Example 2-8, 6-{4-[(trans-4-morpholin-4-ylcyclohexyl)amino]quinazolin-6-yl}pyridine-2-carboxylic acid]	122
